Several values for one entry are separate records, joined by “and”; a condition that tells them apart may be missing. Identical values can stand only once.
Assay: solvent given as SMILES

CCC/N=C/c1cc2ccc(N(C)C)cc2cc1OC
emission maximum (in C1CCOC1): 429 nm
emission maximum (in CC#N): 448 nm
emission maximum (in CC(C)O): 547 nm
emission maximum (in CCOC(C)=O): 441 nm
emission maximum (in CN(C)C=O): 449 nm
emission maximum (in CS(C)=O): 456 nm
emission maximum (in Cc1ccccc1): 418 nm
emission maximum (in ClCCl): 434 nm
emission maximum (in O): 556 nm

N#C/C(=C\c1ccc(Cl)cc1)c1nc2ccccc2s1
emission maximum (in C1CCCCC1): 390 nm
emission maximum (in CO): 430 nm

COCCOCCOCCOc1cc(C=O)c(OCCOCCOCCOC)cc1C=O
emission maximum (in CC(C)(C)O): 478 nm
emission maximum (in CC(C)CO): 479 nm
emission maximum (in CC(C)O): 481 nm
emission maximum (in CCCCO): 472 nm
emission maximum (in CCCO): 471 nm
emission maximum (in CCO): 465 nm
emission maximum (in CN(C)C=O): 464 nm
emission maximum (in CNC=O): 450 nm
emission maximum (in CO): 467 nm
emission maximum (in NC=O): 458 nm
emission maximum (in O): 495 nm

COc1ccccc1-c1cc2c(o1)=CC1=Cc3cc4oc(-c5ccccc5OC)cc4n3[B-](F)(F)[N+]=21
emission maximum (in ClC(Cl)Cl): 680 nm

CC1=[N+]2C(=C(c3ccc(Br)cc3)c3ccc(C)n3[B-]2(F)F)C=C1c1cc2n(c1)[B-](F)(F)[N+]1=CC=CC1=C2c1c(C)cc(C)cc1C
emission maximum (in C1CCCCC1): 642 nm
emission maximum (in CCOC(C)=O): 670 nm

CC(C)(C)c1cc(-c2ccc(-c3cc(C(C)(C)C)cc(C(C)(C)C)c3)cc2)cc(C(C)(C)C)c1
emission maximum (in C1COCCO1): 349 nm

Cc1ccccc1C1=C2C=CC(=[N+](C)C)C=C2[Si](C)(C)c2cc(N(C)C)ccc21
emission maximum (in O): 660 nm

COc1ccc(-c2c3ccccc3c(C#Cc3ccccc3)c3cc4cc(C)sc4cc23)cc1
emission maximum (in ClCCl): 504 nm

O=S1(=O)c2ccc(-c3ccc(-n4c5ccccc5c5ccccc54)cc3)cc2C2(c3ccccc3-c3ccccc32)c2cc(-c3ccc(-n4c5ccccc5c5ccccc54)cc3)ccc21
emission maximum (in CC(C)=O): 443.88 nm
emission maximum (in CCCCCC): 400.18 nm
emission maximum (in CN(C)C=O): 455.8 nm
emission maximum (in Cc1ccccc1): 396.57 nm
emission maximum (in ClCCl): 432 nm

Brc1ccc(/C=C/c2cnc3ccccc3n2)cc1
emission maximum (in ClCCl): 455 nm

CN(C)c1ccc(-c2ccc(-c3ncc4ccccn34)cc2)cc1
emission maximum (in ClC(Cl)Cl): 488 nm

CCCN1/C(=C/C=C/C=C/C2=[N+](CCC)c3ccccc3C2(C)C)C(C)(C)c2ccccc21
emission maximum (in CO): 659 nm
emission maximum (in CS(C)=O): 660 nm
emission maximum (in O): 652 nm

CC(C)(C)c1ccc(-n2c(-c3ccc(N(c4ccc(-c5ccc(N(c6ccc(-c7nc8c9ccccc9c9ccccc9c8n7-c7ccc(C(C)(C)C)cc7)cc6)c6ccc(-c7nc8c9ccccc9c9ccccc9c8n7-c7ccc(C(C)(C)C)cc7)cc6)cc5)cc4)c4ccc(-c5nc6c7ccccc7c7ccccc7c6n5-c5ccc(C(C)(C)C)cc5)cc4)cc3)nc3c4ccccc4c4ccccc4c32)cc1
emission maximum (in ClCCl): 430 nm

COc1ccc2c(c1)c1cc(OC)ccc1c1c2ccc2cccc(C(=O)NC(C)(C)C)c21
emission maximum (in ClCCl): 415 nm

Brc1cc2nc3cc4c5c(cccc5c3nc2cc1Br)C(c1ccccc1)=C(c1ccccc1)O4
emission maximum (in ClCCl): 580 nm

COc1ccc(-c2nc(-c3ccc(OC)cc3C)nc(-c3ccc(N4c5ccccc5C5(c6ccccc6-c6ccccc65)c5ccccc54)cc3C)n2)c(C)c1
emission maximum (in Cc1ccccc1): 467 nm
emission maximum (in O=P(c1ccccc1)(c1ccccc1)c1ccccc1Oc1ccccc1P(=O)(c1ccccc1)c1ccccc1): 469 nm

CC1=[N+]2C(=C(c3ccc(C(=C(c4ccccc4)c4ccccc4)c4ccccc4)cc3)c3ccc(/C=C/c4ccc(C(=C(c5ccccc5)c5ccccc5)c5ccccc5)cc4)n3[B-]2(F)F)C=C1
emission maximum (in C1CCOC1): 612 nm

CN1CCN(CCCN2c3ccccc3Sc3ccc(C(F)(F)F)cc32)CC1
emission maximum (in CC#N): 470 nm
emission maximum (in CO): 467 nm
emission maximum (in O): 482 nm

CCOC(=O)C1=C(N)n2c(=O)c3ccccc3c(=O)n2C1c1cccs1 (stereo not given)
emission maximum (in CS(C)=O): 439 nm

CC(C)[Si]1(C(C)C)c2cc(N(C)C)ccc2-c2ccc(C(F)(F)F)cc21
emission maximum (in C1CCCCC1): 402 nm
emission maximum (in CC#N): 440 nm
emission maximum (in CCO): 422 nm
emission maximum (in CCOCC): 410 nm
emission maximum (in CS(C)=O): 451 nm
emission maximum (in ClCCl): 423 nm
emission maximum (in c1ccccc1): 410 nm

COc1ccc(-c2nc(-c3ccc(-c4nc(-c5ccc(OC)cc5)c(-c5ccc(OC)cc5)[nH]4)cc3)[nH]c2-c2ccc(OC)cc2)cc1
emission maximum (in CC#N): 416.5 nm and 440 nm

CCOC(=O)C1=CNC=C(C(=O)OCC)C1c1ccccc1
emission maximum (in C1CCOC1): 412 nm
emission maximum (in CO): 423 nm

CC(C)[Si](C#Cc1ccc(C#Cc2c3cc4ccccc4cc3c(C#C[Si](C(C)C)(C(C)C)C(C)C)c3cc4ccccc4cc23)cc1)(C(C)C)C(C)C
emission maximum (in ClCCl): 668 nm

CCCCCCCCN1C(=O)c2ccc3c4c(-c5ccc6c7ccccc7n(-c7ccccc7)c6c5)cc5c6c(ccc(c7c(-c8ccc9c%10ccccc%10n(-c%10ccccc%10)c9c8)cc(c2c37)C1=O)c64)C(=O)N(CCCCCCCC)C5=O
emission maximum (in ClC(Cl)Cl): 647 nm

Cc1cc(C)c(B(c2cc(-c3ccc(C(F)(F)F)cc3)sc2-c2sc(-c3ccc(C(F)(F)F)cc3)cc2P(=O)(c2ccccc2)c2ccccc2)c2c(C)cc(C)cc2C)c(C)c1
emission maximum (in CO): 548 nm

Cc1cc2c3ccccc3oc2c2c1c1ccccc1n2-c1ccc(C#N)cc1
emission maximum (in CCOC(C)=O): 379 nm
emission maximum (in CS(C)=O): 440 nm
emission maximum (in ClCCl): 420 nm

O=c1oc2ccccc2c(O)c1C(CC(O)c1ccc(-c2ccc(Br)cc2)cc1)c1ccccc1 (stereo not given)
emission maximum (in CC#N): 403 nm
emission maximum (in CCO): 392 nm
emission maximum (in CO): 394 nm
emission maximum (in O): 397 nm

CN(C)c1ccc(/C=C/C=C/c2ccc([N+](=O)[O-])c(O)c2)cc1
emission maximum (in C1CCCCC1): 530 nm
emission maximum (in C1CCOC1): 686 nm
emission maximum (in C1COCCO1): 634 nm
emission maximum (in CCCCCCC): 523 nm
emission maximum (in Cc1ccccc1): 609 nm

CCCCC1(CCCC)c2cc(-c3ccc(C=C4C(=O)c5ccccc5C4=O)cc3)ccc2-c2ccc(-c3ccc(C=C4C(=O)c5ccccc5C4=O)cc3)cc21
emission maximum (in C1CCOC1): 532 nm
emission maximum (in CC(C)=O): 564 nm
emission maximum (in CCCCCC): 465 nm
emission maximum (in CS(C)=O): 596 nm
emission maximum (in Cc1ccccc1): 492 nm
emission maximum (in ClC(Cl)Cl): 527 nm

COc1ccc(-c2nnc(-c3cc(-n4c5ccccc5c5ccccc54)c(-n4c5ccccc5c5ccccc54)cc3-c3nnc(-c4ccc(OC)cc4)o3)o2)cc1
emission maximum (in CC#N): 515.81 nm
emission maximum (in Cc1ccccc1): 459 nm
emission maximum (in ClCCl): 487.92 nm

O=C(O)COc1cccc(OCC(=O)O)c1-c1c2ccc(=[N+]3CCCCC3)cc-2oc2cc(N3CCCCC3)ccc12
emission maximum (in CCO): 580 nm
emission maximum (in O): 594 nm

CC1(C)c2ccccc2N(c2ccc(-c3nc(-c4ccccc4)cc(-c4ccccc4)n3)cc2)c2ccccc21
emission maximum (in Cc1ccccc1): 454.83 nm

CC(C)(C)c1ccc2c(c1)c1cc(C(C)(C)C)ccc1n2-c1ccc(N(c2ccc(-c3ccc(-c4ccc(N(c5ccc(-n6c7ccc(C(C)(C)C)cc7c7cc(C(C)(C)C)ccc76)cc5)c5ccc(-n6c7ccc(C(C)(C)C)cc7c7cc(C(C)(C)C)ccc76)cc5)cc4)c4nsnc34)cc2)c2ccc(-n3c4ccc(C(C)(C)C)cc4c4cc(C(C)(C)C)ccc43)cc2)cc1
emission maximum (in ClCCl): 600 nm

N#CC(C#N)=Cc1ccc(-c2ccc(O)c(-c3nc4ccccc4s3)c2)o1
emission maximum (in CCO): 632 nm
emission maximum (in ClCCl): 612 nm
emission maximum (in O): 652 nm

N#Cc1ccc(N)c(/C=C/C(F)(F)F)c1
emission maximum (in C1CCOC1): 409 nm

Source: the Deep4Chem optical property database
